Experiments:
Assay type in all cases: cell-based, human
[1] = system: cleaved-caspase 3 and cleaved-PARP; test: Western blot for apoptosis markers in colon cancer cell lines; conditions: whole-cell lysates, 24 h, staurosporine as positive control, Figure 1C
Description: The cells were plated in 6-well plates at a density of 1 × 10^6 cells per well. After incubating overnight, the cells were treated with HPA3P at the indicated concentration. After incubating for 6 h or 24 h, the cells were scraped, and the proteins were quantified by the Bradford method. The proteins were resolved on SDS-PAGE and transferred to PVDF membranes (Millipore, Bedford, USA). The blots were blocked with TBST containing 5% skim milk for 1 h, after which the membranes were incubated overnight at 4°C with primary antibodies against cleaved caspase-3 (#9664), PARP (#9542, Cell Signaling Technology, MA, USA), HMGB1 (ab18256, Abcam, Cambridge, UK), and GAPDH (SC-25778, Santa Cruz, CA, USA). The blots were then washed with TBST buffer and incubated with a secondary horseradish peroxidase-conjugated antibody (Santa Cruz, CA, USA). The reaction was detected using a Clarity™ Western ECL Substrate (BioRad, CA, USA).

[2] = system: colon cancer cell lines; test: MTT assay, cell viability in colon cancer cell lines; conditions: comparison of HPA3P with anticancer drugs
Description: (§1) The cells were plated in 96-well plates at a density of 2 × 10^4 cells per well. After incubating overnight, the cells were treated with HPA3, HPA3P, HPA3P2, oxaliplatin, and 5-FU at various concentrations. After the cells had incubated for 6 h or 24 h, the culture medium was replaced with fresh medium. Twenty microlitres of a 5 mg/ml stock solution of 3-(4,5-dimetylthiazol-2-yl)-2,5-diphenyltetrazolium bromide (Sigma Aldrich) was added to each well, and the cells were incubated for 1 h at 37°C in a humidified atmosphere of 5% CO2. After removal of the supernatant, 100 μl of DMSO was added to each well. The plates were subsequently incubated on a horizontal shaker for 20 min at room temperature, and the optical density was measured at an absorbance of 570 nm using a microplate reader (SPECTRA MAX PLUS, Molecular Devices, CA, USA).

[3] = system: LoVo cells; test: MTT assay, LoVo; conditions: 24 h, Figure 4E
Description: as §1

[4] = system: HT-29 cells; test: MTT assay, HT-29; conditions: HT-29, 24 h, Figure 4E
Description: as §1

[5] = system: SW480 cells; test: MTT assay, SW480; conditions: SW480, 24 h, Figure 4E
Description: as §1

[6] = system: HCT116 p53+/+ cells; test: MTT assay, HCT116 p53+/+; conditions: for restoration of cell viability in HPA3P-treated cells: pretreated with 30 μM Nec-1s or 3 μM GSK΄872 for 2 h, then HPA3P, Figure 5B-5C
Description: The cell lysates were analysed for RIPK1 and RIPK3 expression by western blotting. […] The cells were subsequently treated with HPA3P. HPA3P-induced cytotoxicity was measured by MTT assay. […] The cell lysates were analysed by western blot analysis. […] The cells were stained with PI for flow cytometric analysis. (F) The cells were treated with 30 μM HPA3P for the indicated times. RIPK3 expression was analysed by western blotting. […] Cell viability was measured by MTT assay. ^*p < 0.05, ^**p < 0.01 indicate a significant difference between the indicated groups. NS, not significant. (H) The colon cancer cell lysates used in this study were analysed by western blotting. (I) Schematic diagram of HPA3P-induced necroptosis.
as §1

[7] = system: HCT116 p53+/+ cells; test: PI staining analysed by flow cytometry, HCT116 p53+/+; conditions: 3 μM GSK΄872 for 2 h and/or 30 μM HPA3P for 6 h, Figure 5E
Description: Figure 3 HPA3P-induced necrosis and morphological changes in human colon cancer cell lines All cell lines were treated with HPA3P for 30 min and then stained with Hoechst 33342/PI or PI alone. (A) Pictures of Hoechst 33342/PI-stained cells were taken using an Olympus IX71 fluorescence microscope (magnification LCAch N 20X). (B) PI-stained cells were analysed by flow cytometry. (C) Morphological changes in colon cancer cells treated with HPA3P for 5 min were observed using an Olympus IX71 light microscope (magnification LUCPlaFL N 40X). The black arrows indicate membrane blebs. […] Morphological changes were observed under an Olympus IX71 fluorescence microscope (magnification LUCPlaFL N 40X). […]
Figure 5 Low concentrations of HPA3P induce RIPK3-dependent necroptosis in HCT116 p53^+/+ cells (A) HCT116 p53^+/+ cells were treated with HPA3P for 6 h. The cell lysates were analysed for RIPK1 and RIPK3 expression by western blotting. […] HPA3P-induced cytotoxicity was measured by MTT assay. […] The cell lysates were analysed by western blot analysis. […] RIPK3 expression was analysed by western blotting. […] Cell viability was measured by MTT assay. ^*p < 0.05, ^**p < 0.01 indicate a significant difference between the indicated groups. […] (H) The colon cancer cell lysates used in this study were analysed by western blotting. […]

[8] = system: RIPK3; test: RIPK3 expression, western blot in HCT116 p53+/+ cells; conditions: 3 μM GSK΄872 pretreatment, Figure 5C
Description: Figure 5 Low concentrations of HPA3P induce RIPK3-dependent necroptosis in HCT116 p53^+/+ cells (A) HCT116 p53^+/+ cells were treated with HPA3P for 6 h. The cell lysates were analysed for RIPK1 and RIPK3 expression by western blotting. The cells were pretreated with 30 μM Nec-1s (B) or 3 μM GSK΄872 (C) for 2 h and (D) transfected with negative-control (scramble), RIPK1, RIPK3, and MLKL siRNA for 24 h. The cells were subsequently treated with HPA3P. HPA3P-induced cytotoxicity was measured by MTT assay. (B–D) The cells were treated with Nec-1s or GSK΄872, and transfected with siRNA for 24 h. The cell lysates were analysed by western blot analysis. (E) The cells were treated with 3 μM GSK΄872 for 2 h and subsequently treated with 30 μM HPA3P for 6 h. The cells were stained with PI for flow cytometric analysis. […] RIPK3 expression was analysed by western blotting. […] Cell viability was measured by MTT assay. ^*p < 0.05, ^**p < 0.01 indicate a significant difference between the indicated groups. […] (H) The colon cancer cell lysates used in this study were analysed by western blotting. […]
The cells were plated in 6-well plates at a density of 1 × 10^6 cells per well. […] After incubating for 6 h or 24 h, the cells were scraped, and the proteins were quantified by the Bradford method. […] The reaction was detected using a Clarity™ Western ECL Substrate (BioRad, CA, USA). […]

CN[C@@H]1C[C@H]2O[C@@](C)([C@@H]1OC)n1c3ccccc3c3c4c(c5c6ccccc6n2c5c31)C(=O)NC4 [staurosporine]
cleaved-caspase 3 and cleaved-PARP [1]: detected

O=c1[nH]cc(F)c(=O)[nH]1 [5-FU]
cell viability ([2]; 6 h, Figure 4D): no effect on cell viability | cell viability ([2]; 24 h, Figure 4E): no effect on cell viability

O=C1[O][Pt]2([NH][C@@H]3CCCC[C@H]3[NH]2)[O]C1=O [oxaliplatin, Oxaliplatin]
cell viability ([2]; 6 h, Figure 4D): no effect on cell viability | cell viability [3]: significant decrease in cell viability | cell viability [4]: reduced cell viability only slightly | cell viability [5]: significant decrease in cell viability | cell viability ([6]; 24 h, Figure 4E): significant decrease in cell viability

CC(C)S(=O)(=O)c1ccc2nccc(Nc3ccc4scnc4c3)c2c1 [GSK΄872]
protective effect on HPA3P-mediated cytotoxicity ([6]; pretreated with 3 μM GSK΄872 for 2 h, then HPA3P for 24 h, Figure 5G): inhibited HPA3P-induced cytotoxicity | restoration of cell viability in HPA3P-treated cells [6]: restored cell viability | PI staining, gate P1 [7]: 91.47% | PI staining, gate P2 [7]: 7.34% | effect on HPA3P-induced increases in RIPK3 expression [8]: inhibited

CN1C(=O)NC(Cc2c[nH]c3c(Cl)cccc23)C1=O (centres unmarked) [Nec-1s]
restoration of cell viability in HPA3P-treated cells [6]: did not restore cell viability
